# Tests used:
# Vasopressin V1a receptor = Vasopressin V1a receptor (Homo sapiens, UniProt P37288)
# Estrogen receptor = molecular target: T1, Estrogen receptor (Homo sapiens, UniProt P03372)
# T1 sequence (P03372 whole entry): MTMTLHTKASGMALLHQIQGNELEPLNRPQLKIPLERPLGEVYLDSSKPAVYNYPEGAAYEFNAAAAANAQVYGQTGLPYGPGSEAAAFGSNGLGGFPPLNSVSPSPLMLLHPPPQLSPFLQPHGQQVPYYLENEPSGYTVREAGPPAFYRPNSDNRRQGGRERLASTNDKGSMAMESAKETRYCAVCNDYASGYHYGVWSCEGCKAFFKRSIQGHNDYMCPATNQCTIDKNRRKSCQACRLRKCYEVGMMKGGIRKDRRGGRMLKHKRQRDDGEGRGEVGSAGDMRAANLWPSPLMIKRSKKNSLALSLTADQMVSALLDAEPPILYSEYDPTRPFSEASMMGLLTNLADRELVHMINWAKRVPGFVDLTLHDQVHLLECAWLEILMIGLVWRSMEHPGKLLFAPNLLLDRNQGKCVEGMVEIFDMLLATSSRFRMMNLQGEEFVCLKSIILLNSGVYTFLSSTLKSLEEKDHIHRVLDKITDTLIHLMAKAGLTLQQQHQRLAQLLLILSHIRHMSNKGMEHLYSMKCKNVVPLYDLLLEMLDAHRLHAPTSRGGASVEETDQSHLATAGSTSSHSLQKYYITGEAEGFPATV
# Thromboxane A2 receptor [1] = molecular target: T2, Thromboxane A2 receptor (Homo sapiens, UniProt P21731)
# T2 sequence (P21731 whole entry): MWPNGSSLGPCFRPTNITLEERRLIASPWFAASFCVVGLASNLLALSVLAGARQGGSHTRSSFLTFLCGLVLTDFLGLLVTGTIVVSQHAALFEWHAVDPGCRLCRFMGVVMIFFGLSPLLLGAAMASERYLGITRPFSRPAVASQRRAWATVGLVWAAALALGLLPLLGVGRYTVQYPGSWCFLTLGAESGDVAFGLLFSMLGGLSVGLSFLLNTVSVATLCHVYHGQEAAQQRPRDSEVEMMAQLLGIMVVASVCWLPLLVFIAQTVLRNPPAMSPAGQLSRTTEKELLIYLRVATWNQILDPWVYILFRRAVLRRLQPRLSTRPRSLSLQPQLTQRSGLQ
# [2] = molecular target: T3, Gastrin/cholecystokinin type B receptor (Homo sapiens, UniProt P32239)
# T3 sequence (P32239 whole entry): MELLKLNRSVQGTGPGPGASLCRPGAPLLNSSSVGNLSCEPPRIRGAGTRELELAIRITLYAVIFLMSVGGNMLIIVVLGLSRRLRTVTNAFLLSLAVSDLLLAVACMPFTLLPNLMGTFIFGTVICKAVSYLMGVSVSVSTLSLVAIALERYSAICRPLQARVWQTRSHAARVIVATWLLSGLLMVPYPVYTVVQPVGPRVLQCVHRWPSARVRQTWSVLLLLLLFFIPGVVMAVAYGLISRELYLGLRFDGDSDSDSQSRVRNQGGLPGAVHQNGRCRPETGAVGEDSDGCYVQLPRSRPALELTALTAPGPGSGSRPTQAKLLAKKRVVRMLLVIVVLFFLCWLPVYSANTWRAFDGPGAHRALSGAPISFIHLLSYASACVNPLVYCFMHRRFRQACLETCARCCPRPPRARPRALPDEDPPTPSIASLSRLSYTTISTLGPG
# Thromboxane A2 receptor [3] = molecular target: T2, Thromboxane A2 receptor; type: functional, cell-based
# Histamine H1 receptor = Histamine H1 receptor (Homo sapiens, UniProt P35367)
# Histamine H1 receptor, sequence (P35367 whole entry): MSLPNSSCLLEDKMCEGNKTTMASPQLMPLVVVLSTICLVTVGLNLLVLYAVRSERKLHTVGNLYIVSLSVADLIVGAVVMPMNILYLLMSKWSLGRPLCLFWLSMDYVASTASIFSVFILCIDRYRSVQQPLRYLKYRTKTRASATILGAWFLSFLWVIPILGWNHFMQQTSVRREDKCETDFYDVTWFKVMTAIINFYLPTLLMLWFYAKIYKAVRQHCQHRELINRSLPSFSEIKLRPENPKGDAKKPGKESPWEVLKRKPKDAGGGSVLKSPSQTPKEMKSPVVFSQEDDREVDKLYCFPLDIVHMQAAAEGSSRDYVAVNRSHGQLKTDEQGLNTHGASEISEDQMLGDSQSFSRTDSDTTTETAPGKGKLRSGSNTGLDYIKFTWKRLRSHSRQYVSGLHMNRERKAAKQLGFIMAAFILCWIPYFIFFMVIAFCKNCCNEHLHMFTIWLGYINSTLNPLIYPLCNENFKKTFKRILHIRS
# [4] = molecular target: cGMP-inhibited 3',5'-cyclic phosphodiesterase 3A (Homo sapiens, UniProt Q14432); type: functional
# cGMP-inhibited 3',5'-cyclic phosphodiesterase 3A, sequence (Q14432 whole entry): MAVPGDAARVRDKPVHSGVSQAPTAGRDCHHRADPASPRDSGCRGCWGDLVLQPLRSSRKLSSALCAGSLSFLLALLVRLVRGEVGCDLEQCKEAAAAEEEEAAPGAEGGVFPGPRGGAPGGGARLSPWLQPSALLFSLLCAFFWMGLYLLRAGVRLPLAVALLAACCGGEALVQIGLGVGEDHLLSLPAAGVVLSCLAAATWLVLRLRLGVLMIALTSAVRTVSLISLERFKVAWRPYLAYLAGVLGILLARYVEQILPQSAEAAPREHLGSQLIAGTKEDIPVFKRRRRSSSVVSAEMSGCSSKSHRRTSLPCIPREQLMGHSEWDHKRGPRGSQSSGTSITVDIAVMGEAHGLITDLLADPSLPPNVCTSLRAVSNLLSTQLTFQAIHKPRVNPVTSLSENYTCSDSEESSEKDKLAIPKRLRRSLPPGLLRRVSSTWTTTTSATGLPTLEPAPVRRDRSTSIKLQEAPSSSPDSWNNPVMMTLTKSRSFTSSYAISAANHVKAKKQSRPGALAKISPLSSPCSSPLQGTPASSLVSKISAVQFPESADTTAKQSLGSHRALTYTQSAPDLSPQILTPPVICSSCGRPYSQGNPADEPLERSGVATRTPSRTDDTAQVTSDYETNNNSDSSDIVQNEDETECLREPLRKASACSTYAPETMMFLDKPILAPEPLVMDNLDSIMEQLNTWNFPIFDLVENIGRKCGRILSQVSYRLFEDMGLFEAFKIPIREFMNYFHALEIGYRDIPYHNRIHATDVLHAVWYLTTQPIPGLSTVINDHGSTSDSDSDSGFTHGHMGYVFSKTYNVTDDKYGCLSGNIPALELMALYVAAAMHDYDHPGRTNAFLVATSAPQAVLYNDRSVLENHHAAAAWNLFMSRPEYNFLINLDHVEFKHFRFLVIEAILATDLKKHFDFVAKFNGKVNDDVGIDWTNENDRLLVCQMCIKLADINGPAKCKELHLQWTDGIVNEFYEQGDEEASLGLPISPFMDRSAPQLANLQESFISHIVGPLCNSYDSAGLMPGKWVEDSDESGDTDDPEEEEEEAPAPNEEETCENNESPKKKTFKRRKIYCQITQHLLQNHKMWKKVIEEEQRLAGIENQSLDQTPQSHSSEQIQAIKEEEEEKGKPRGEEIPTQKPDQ
# Prothrombin = Prothrombin (Homo sapiens, UniProt P00734); type: functional
# Thromboxane A2 receptor [5] = molecular target: T2, Thromboxane A2 receptor; type: functional, cell-based; remark: listed apart in the source
# Acetylcholinesterase = Acetylcholinesterase (Homo sapiens, UniProt P22303); type: functional
# Acetylcholinesterase, sequence (P22303 whole entry): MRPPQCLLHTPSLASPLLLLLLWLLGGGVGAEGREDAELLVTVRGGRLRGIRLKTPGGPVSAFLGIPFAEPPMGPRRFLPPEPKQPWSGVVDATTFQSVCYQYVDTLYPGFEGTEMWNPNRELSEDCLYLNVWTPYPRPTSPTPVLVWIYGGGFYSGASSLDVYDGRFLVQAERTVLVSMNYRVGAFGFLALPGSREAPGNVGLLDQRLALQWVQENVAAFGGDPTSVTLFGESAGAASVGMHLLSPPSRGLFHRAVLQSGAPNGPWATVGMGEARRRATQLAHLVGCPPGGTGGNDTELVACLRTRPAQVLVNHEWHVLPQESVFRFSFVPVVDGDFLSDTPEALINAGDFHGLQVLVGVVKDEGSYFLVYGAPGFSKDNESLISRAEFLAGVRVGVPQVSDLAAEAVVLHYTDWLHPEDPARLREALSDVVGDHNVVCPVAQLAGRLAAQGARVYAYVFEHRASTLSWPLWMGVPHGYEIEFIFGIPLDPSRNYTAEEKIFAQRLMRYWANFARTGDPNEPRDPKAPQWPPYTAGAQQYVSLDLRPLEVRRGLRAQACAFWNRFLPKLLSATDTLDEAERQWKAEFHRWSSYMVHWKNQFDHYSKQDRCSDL
# D(3) dopamine receptor = D(3) dopamine receptor (Homo sapiens, UniProt P35462)
# D(3) dopamine receptor, sequence (P35462 whole entry): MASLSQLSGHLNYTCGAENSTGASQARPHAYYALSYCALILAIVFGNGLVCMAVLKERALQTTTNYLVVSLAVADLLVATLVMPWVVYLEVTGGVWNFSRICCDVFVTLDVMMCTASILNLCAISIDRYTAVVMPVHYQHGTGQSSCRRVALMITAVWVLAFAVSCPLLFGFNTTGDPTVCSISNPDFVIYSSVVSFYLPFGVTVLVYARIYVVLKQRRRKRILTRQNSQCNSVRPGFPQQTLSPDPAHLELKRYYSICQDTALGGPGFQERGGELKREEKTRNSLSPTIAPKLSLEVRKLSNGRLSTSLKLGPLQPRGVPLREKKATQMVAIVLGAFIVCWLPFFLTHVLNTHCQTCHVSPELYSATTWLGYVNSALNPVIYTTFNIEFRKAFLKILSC
# [6] = molecular target: Kappa-type opioid receptor (Homo sapiens, UniProt P41145)
# Kappa-type opioid receptor, sequence (P41145 whole entry): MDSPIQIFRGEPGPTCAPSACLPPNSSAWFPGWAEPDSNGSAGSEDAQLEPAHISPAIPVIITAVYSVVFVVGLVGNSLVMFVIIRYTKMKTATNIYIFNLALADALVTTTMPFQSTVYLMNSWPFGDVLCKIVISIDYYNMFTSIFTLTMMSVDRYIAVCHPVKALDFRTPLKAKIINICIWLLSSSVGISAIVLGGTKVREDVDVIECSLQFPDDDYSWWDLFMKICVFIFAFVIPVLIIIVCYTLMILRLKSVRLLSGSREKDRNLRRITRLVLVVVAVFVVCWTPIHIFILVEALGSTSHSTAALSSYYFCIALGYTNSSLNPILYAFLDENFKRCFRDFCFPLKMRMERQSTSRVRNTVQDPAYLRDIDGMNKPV
# [7] = molecular target: Gamma-aminobutyric acid receptor subunit alpha-1/alpha-2/beta-2/gamma-2 (Homo sapiens, UniProt P14867+P18507+P47869+P47870); type: protein-complex assay
# [8] = molecular target: T4, Alpha-1A adrenergic receptor (Homo sapiens, UniProt P35348); type: functional, cell-based
# T4 sequence (P35348 whole entry): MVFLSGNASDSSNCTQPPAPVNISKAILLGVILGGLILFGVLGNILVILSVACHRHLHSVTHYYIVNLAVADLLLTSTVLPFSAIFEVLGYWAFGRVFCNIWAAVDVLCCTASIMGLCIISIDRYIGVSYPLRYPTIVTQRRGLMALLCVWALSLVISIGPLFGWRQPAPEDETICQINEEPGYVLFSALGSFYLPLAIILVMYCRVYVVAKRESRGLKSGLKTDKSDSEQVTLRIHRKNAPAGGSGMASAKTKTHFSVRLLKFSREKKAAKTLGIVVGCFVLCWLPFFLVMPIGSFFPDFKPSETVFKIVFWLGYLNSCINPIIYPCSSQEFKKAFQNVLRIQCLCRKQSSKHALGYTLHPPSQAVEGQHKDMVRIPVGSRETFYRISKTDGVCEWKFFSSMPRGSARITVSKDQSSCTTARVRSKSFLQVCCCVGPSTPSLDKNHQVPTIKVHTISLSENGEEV
# [9] = molecular target: T4, Alpha-1A adrenergic receptor; type: functional, cell-based; remark: listed apart in the source
# Histamine H3 receptor = Histamine H3 receptor (Homo sapiens, UniProt Q9Y5N1)
# Histamine H3 receptor, sequence (Q9Y5N1 whole entry): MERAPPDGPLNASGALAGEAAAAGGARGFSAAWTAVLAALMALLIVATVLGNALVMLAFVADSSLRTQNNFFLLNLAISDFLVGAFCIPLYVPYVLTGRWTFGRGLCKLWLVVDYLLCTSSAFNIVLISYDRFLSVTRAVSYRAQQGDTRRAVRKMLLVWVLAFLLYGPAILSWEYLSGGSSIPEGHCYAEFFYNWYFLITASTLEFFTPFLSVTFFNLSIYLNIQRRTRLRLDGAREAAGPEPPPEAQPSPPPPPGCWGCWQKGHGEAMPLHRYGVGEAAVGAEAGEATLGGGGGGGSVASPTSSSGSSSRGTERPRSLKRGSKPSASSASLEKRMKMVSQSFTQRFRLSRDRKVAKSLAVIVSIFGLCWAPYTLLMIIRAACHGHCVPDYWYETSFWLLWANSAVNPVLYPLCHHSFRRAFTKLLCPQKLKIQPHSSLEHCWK
# [10] = molecular target: 5-hydroxytryptamine receptor 2A (Homo sapiens, UniProt P28223); type: functional, cell-based
# 5-hydroxytryptamine receptor 2A, sequence (P28223 whole entry): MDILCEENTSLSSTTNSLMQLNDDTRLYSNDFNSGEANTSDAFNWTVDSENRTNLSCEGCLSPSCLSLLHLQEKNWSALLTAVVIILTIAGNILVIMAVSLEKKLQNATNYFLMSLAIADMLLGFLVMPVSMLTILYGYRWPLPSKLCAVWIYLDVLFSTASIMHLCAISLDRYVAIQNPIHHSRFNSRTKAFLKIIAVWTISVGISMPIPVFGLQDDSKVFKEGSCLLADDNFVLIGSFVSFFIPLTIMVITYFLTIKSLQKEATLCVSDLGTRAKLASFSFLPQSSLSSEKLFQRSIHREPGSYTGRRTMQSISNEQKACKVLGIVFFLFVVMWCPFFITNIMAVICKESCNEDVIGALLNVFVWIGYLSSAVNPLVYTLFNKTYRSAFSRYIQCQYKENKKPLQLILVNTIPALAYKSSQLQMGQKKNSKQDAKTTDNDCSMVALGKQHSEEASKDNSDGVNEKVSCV
# [11] = molecular target: Muscarinic acetylcholine receptor M3 (Homo sapiens, UniProt P20309)
# Muscarinic acetylcholine receptor M3, sequence (P20309 whole entry): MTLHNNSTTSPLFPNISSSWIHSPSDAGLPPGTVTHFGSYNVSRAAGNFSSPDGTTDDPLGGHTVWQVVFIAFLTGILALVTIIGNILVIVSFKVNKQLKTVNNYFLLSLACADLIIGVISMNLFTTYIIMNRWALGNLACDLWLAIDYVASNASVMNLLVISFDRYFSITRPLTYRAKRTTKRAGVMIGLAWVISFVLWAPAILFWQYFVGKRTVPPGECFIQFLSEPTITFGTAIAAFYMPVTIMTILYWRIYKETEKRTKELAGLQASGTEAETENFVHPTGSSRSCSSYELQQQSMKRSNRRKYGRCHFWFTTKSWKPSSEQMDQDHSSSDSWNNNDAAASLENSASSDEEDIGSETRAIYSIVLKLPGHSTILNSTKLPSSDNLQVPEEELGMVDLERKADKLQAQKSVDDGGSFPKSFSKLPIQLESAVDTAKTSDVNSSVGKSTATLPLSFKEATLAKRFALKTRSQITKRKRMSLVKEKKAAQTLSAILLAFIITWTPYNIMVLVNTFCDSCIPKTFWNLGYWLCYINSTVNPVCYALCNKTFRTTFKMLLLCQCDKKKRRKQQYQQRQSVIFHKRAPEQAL
# Note: assay procedure not described here.
# Vasopressin V1a receptor, sequence (P37288 whole entry): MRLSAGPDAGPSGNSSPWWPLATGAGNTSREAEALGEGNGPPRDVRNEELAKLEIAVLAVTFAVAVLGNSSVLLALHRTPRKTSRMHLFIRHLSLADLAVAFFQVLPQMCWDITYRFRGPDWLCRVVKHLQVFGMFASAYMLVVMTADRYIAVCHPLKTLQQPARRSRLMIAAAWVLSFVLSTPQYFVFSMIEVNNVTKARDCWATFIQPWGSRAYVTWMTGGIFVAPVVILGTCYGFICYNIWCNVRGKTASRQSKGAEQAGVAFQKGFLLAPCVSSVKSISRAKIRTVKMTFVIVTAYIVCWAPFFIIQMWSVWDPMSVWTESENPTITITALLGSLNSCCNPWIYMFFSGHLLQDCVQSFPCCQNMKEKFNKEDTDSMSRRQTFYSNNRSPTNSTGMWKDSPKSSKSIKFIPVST
SMILES,AC50 (Vasopressin V1a receptor),AC50 (Estrogen receptor),AC50 (Thromboxane A2 receptor [1]),AC50 [2],AC50 (Thromboxane A2 receptor [3]),AC50 (Histamine H1 receptor),AC50 [4],AC50 (Prothrombin),AC50 (Thromboxane A2 receptor [5]),AC50 (Acetylcholinesterase),AC50 (D(3) dopamine receptor),AC50 [6],AC50 [7],AC50 [8],AC50 [9],AC50 (Histamine H3 receptor),AC50 [10],AC50 [11]
COc1cc(Nc2c(C#N)cnc3cc(OCCCN4CCN(C)CC4)c(OC)cc23)c(Cl)cc1Cl [BOSUTINIB],4.7 µM,> 30 µM,> 30 µM,> 30 µM,> 3 µM,> 10 µM,> 30 µM,> 30 µM,> 10 µM,15.6 µM,3.01 µM,10 µM,–,–,–,–,–,–
CCO/N=C(\C(=O)N[C@@H]1C(=O)N2C(C(=O)[O-])=C(Sc3nc(-c4cc[n+](C)cc4)cs3)CS[C@H]12)c1nsc(N)n1 [CEFTAROLINE],–,> 30 µM,–,–,> 30 µM,–,> 30 µM,> 30 µM,> 30 µM,> 30 µM,> 30 µM,–,> 30 µM,–,–,–,–,–
Cc1cc(O)cc(C)c1Cl [CHLOROXYLENOL],–,–,–,–,28.3 µM,–,> 30 µM,> 30 µM,> 30 µM,> 30 µM,> 30 µM,–,> 30 µM,–,–,–,–,–
CN(C)CCCN1c2ccccc2CCc2ccc(Cl)cc21 [CLOMIPRAMINE],–,–,–,–,–,–,–,–,–,> 30 µM,0.0393 µM,–,> 30 µM,1.4 µM,> 30 µM,3.8 µM,–,–
C[N+](C)(C)CCCCCCCCCC[N+](C)(C)C [DECAMETHONIUM],–,> 30 µM,–,–,> 30 µM,–,> 30 µM,> 30 µM,> 30 µM,9.15 µM,> 30 µM,–,> 30 µM,–,–,–,–,–
CCOC(=O)c1ccc(O)cc1 [ETHYLPARABEN],–,> 30 µM,–,–,> 30 µM,–,> 30 µM,> 30 µM,> 30 µM,> 30 µM,> 30 µM,–,> 30 µM,–,–,–,–,–
O=C1[C@H](CC[C@H](O)c2ccc(F)cc2)[C@@H](c2ccc(O)cc2)N1c1ccc(F)cc1 [EZETIMIBE],–,> 30 µM,–,–,7.68 µM,–,> 30 µM,> 30 µM,> 30 µM,> 30 µM,> 30 µM,–,> 10 µM,–,–,–,–,–
O=C(COc1ccc(Cl)cc1)N1CCN(Cc2ccc3c(c2)OCO3)CC1 [FIPEXIDE],–,> 30 µM,–,–,11.3 µM,–,> 30 µM,> 30 µM,> 30 µM,> 30 µM,27.1 µM,–,> 30 µM,–,–,–,–,–
Cc1c(-c2ccccc2)oc2c(C(=O)OCCN3CCCCC3)cccc2c1=O [FLAVOXATE],–,> 30 µM,–,–,> 30 µM,–,> 30 µM,> 30 µM,> 30 µM,17.6 µM,0.88 µM,–,> 30 µM,–,–,–,–,–
CCC(=O)c1c(O)cc(O)cc1O [FLOPROPIONE],–,> 30 µM,–,–,> 30 µM,–,> 30 µM,> 30 µM,> 30 µM,> 30 µM,12.1 µM,–,> 30 µM,–,–,–,–,–
CC1(C)O[C@@H]2C[C@H]3[C@@H]4C[C@H](F)C5=CC(=O)CC[C@]5(C)[C@H]4[C@@H](O)C[C@]3(C)[C@]2(C(=O)CO)O1 [FLURANDRENOLIDE],–,> 30 µM,–,–,> 30 µM,–,> 30 µM,> 30 µM,> 30 µM,> 30 µM,> 30 µM,–,> 30 µM,–,–,–,–,–
C#C[C@]1(O)CC[C@H]2[C@@H]3CCC4=CC(=O)CC[C@@H]4[C@H]3CC[C@@]21CC [LEVONORGESTREL],–,8.65 µM,–,–,> 30 µM,–,> 30 µM,> 30 µM,> 30 µM,> 30 µM,> 30 µM,–,> 30 µM,–,–,–,–,–
OC[C@@H](O)[C@@H](O)[C@H](O)[C@H](O)CO [MANNITOL],–,> 30 µM,–,–,> 30 µM,–,> 30 µM,> 30 µM,> 30 µM,> 30 µM,> 30 µM,–,> 30 µM,–,–,–,–,–
Sc1ncnc2nc[nH]c12 [MERCAPTOPURINE ANHYDROUS],–,> 30 µM,–,–,> 30 µM,–,> 30 µM,> 30 µM,> 30 µM,> 30 µM,> 30 µM,–,> 30 µM,–,–,–,–,–
O=C1CC[C@@]2(O)[C@H]3Cc4ccc(O)c5c4[C@@]2(CCN3CC2CC2)[C@H]1O5 [NALTREXONE],–,–,–,–,> 30 µM,–,> 30 µM,> 30 µM,> 30 µM,> 30 µM,> 30 µM,–,> 30 µM,–,–,–,–,–
OCCN1CCN(CCCN2c3ccccc3C=Cc3ccccc32)CC1 [OPIPRAMOL],> 30 µM,> 30 µM,–,> 30 µM,> 30 µM,0.081 µM,> 30 µM,> 30 µM,> 30 µM,> 30 µM,0.42 µM,> 30 µM,–,14 µM,> 30 µM,> 30 µM,28 µM,> 30 µM
CC(N/C(=N\C#N)Nc1ccncc1)C(C)(C)C (stereo unspecified) [PINACIDIL ANHYDROUS],–,–,–,–,> 30 µM,–,> 30 µM,> 30 µM,> 30 µM,> 30 µM,> 30 µM,–,> 30 µM,–,–,–,–,–
CN(C)C(=O)Oc1ccc[n+](C)c1 [PYRIDOSTIGMINE],–,> 30 µM,–,–,> 30 µM,–,> 30 µM,> 30 µM,> 30 µM,–,> 30 µM,–,> 30 µM,–,–,–,–,–
O=C(NC[C@H]1CN(c2ccc(N3CCOCC3=O)cc2)C(=O)O1)c1ccc(Cl)s1 [RIVAROXABAN],–,> 30 µM,–,–,> 3 µM,> 30 µM,> 30 µM,–,> 30 µM,> 30 µM,> 30 µM,> 30 µM,–,> 30 µM,> 30 µM,–,> 30 µM,> 30 µM
CS(=O)(=O)c1ccc([C@@H](O)[C@@H](CO)NC(=O)C(Cl)Cl)cc1 [THIAMPHENICOL],> 30 µM,> 30 µM,> 30 µM,> 30 µM,> 30 µM,–,> 30 µM,> 30 µM,> 30 µM,> 30 µM,> 30 µM,> 30 µM,–,> 30 µM,> 30 µM,> 30 µM,–,–

# From ChEMBL document CHEMBL5291721, “A preclinical secondary pharmacology resource illuminates target-adverse drug reaction associations of marketed drugs” (Nat Commun, 2023)
